According to patent publication US9278097B2, “Prophylaxis and/or treatment of portal hypertension” (Universitatsklinikum Freiburg, priority 2003, dated 2016):

Columns and labels:
Assay type in all cases: in vivo, human
[1] = tested on: volunteers; experiment: Sonographic / Doppler sonographic measurement of blood flow through the liver and blood pressure before and 90 minutes after oral Sildenafil; conditions: 100 mg oral
Description: With ten volunteers, the base values of the blood flow through the liver were measured in the morning before breakfast by means of common sonographic or Doppler sonographic methods. Subsequently, 100 mg Sildenafil were administered orally for each test person. On the average, 90 minutes after administration of this drug, the measurements were repeated.

[2] = tested on: volunteers; experiment: as above; conditions: 100 mg oral, n = 5, baseline mean 0.83
[3] = tested on: patients having portal hypertension (origin: liver cirrhosis in the status of Child A); experiment: Doppler sonography of liver haemodynamics before and 1 h after oral Vardenafil, patients; conditions: continuous measurement after 10 mg oral, FIG. 4
Description: In a further study, 16 healthy volunteers and 15 patients having portal hypertension (origin: liver cirrhosis in the status of Child A) were subjected to the following treatment:
In both the volunteers and the patients with empty stomach (10 hours of food leave), firstly the pulse rate and blood pressure under lying condition and subsequently the parameters of liver haemodynamics were measured by Doppler sonography.
The portal vein pressure is derived from the values obtained from the application of the apparatus Elegra from Siemens having a 3.5 MHz sectorial scanner (K. Haag et al., Am. J. Roentgenol 1999; 172: 631-635). Each measurement was carried out three times in total. The mean value from all three measurements was used. The measurements were carried out in the resting expiratory position. When measuring the flows and the flow volumina, the sonic angle lied below 60°. The sectional plane was basically chosen such that the vessel will be illustrated in its longitudinal route.
Flow measurements in the Vena portae as well as in their intrahepatic main stems. The determination of the flow volume in the portal vein, the Vena lienalis and the Vena mesenterica was carried out by Doppler-sonography, as measured by the options of the apparatus and by calculation through the formula: flow=π·d^2/4·Vmax2·60, wherein d is indicated in cm and Vmax is indicated in cm/s. Vena Lienalis: […]

[4] = tested on: patients, who had a pathological collateral or detour circulation, as originally caused by liver cirrhosis; experiment: Doppler sonography of flow in the porto-systemic detour circulation before and after oral Vardenafil; conditions: two patients, single oral administration of 10 mg
Description: Hereby, before and after a single oral administration of 10 mg Vardenafil, the flow in the porto-systemic detour circulation was measured by Doppler-sonography: once in a patient having V. coronaria ventriculi as well as oesophagus varices, and another time in a patient having re-opened V. umbilicalis.

[5] = tested on: patient having liver cirrhosis due to a chronic Hepatitis C; experiment: Invasive measurement of wedged hepatic vein pressure (portal vein pressure) by balloon catheter; conditions: one patient, 25 minutes after 10 mg oral; 31 mm Hg prior to administration
Description: In a patient having liver cirrhosis due to a chronic Hepatitis C, the wedged hepatic vein pressure, which can be equated with the portal vein pressure, was measured invasively. For this, a balloon catheter was introduced through the Vena jugularis interna into a small hepatic vein under X-ray control. Then, the free hepatic vein pressure may be measured, when the tip of the catheter lies freely in the lumen of the small vein. When the balloon is dilated (the diameter of this small hepatic vein amounts to a few mm), a congestion pressure is built-up at the tip of the catheter, corresponding to the portal vein pressure. In the tested patient, the portal vein pressure prior to the oral administration of a medicament was at 31 mm Hg.

**Q.** Which “Diameter of V. lienalis, change by Sildenafil (in %)” value ([1]; 90 minutes, n = 10) does the source give for `CCCc1nn(C)c2c(=O)[nH]c(-c3cc(S(=O)(=O)N4CCN(C)CC4)ccc3OCC)nc12` [Sildenafil, 1-{[3-(6,7-Dihydro-1-methyl-7-oxo-3-propyl-1H-pyrazolo-[4,3-d]pyrimidin-5-yl)-4-ethoxyphenyl]sulfonyl}-4-methyl-piperazine] here?
**A.** +13%

**Q.** What about the “Diameter of portal vein, change by Sildenafil (in %)” value ([1]; 90 minutes, n = 10) of the same molecule?
**A.** +12.8%

**Q.** And the “Diastolic blood pressure, change by Sildenafil (in %)” value ([1]; 90 minutes, n = 10)?
**A.** −9.5%

**Q.** And the “Resistivity Index of A. hepatica communis, change by Sildenafil (in %)” value ([1]; 90 minutes, n = 10)?
**A.** +4.48%

**Q.** And the “Resistivity Index of Truncus coeliacus, change by Sildenafil (in %)” value ([1]; 90 minutes, n = 10)?
**A.** −1.5%

**Q.** What about the “Vmax of V. lienalis, change by Sildenafil (in %)” value ([1]; 90 minutes, n = 10) of the same molecule?
**A.** −2.3%

**Q.** What about the “Vmax of portal vein, change by Sildenafil (in %)” value ([1]; 90 minutes, n = 10) of the same molecule?
**A.** −5.3%

**Q.** And the “Resistivity Index of A. hepatica communis, change by Sildenafil (absolute)” value ([1]; 90 minutes, n = 10, baseline mean 0.67)?
**A.** +0.03

**Q.** What about the “Resistivity Index of Truncus coeliacus, change by Sildenafil (absolute)” value ([1]; 90 minutes, n = 10, baseline mean 0.75) of the same molecule?
**A.** −0.115

**Q.** And the “Diameter of V. lienalis, change by Sildenafil (absolute)” value ([1]; 90 minutes, n = 10, baseline mean 7.7)?
**A.** 1.0 mm

**Q.** And the “Diameter of portal vein, change by Sildenafil (absolute)” value ([1]; 90 minutes, n = 10, baseline mean 11.7)?
**A.** 1.5 mm

**Q.** And the “Vmax of V. lienalis, change by Sildenafil (absolute)” value ([1]; 90 minutes, n = 10, baseline mean 20.14)?
**A.** -0.47 cm/s

**Q.** What about the “Vmax of portal vein, change by Sildenafil (absolute)” value ([1]; 90 minutes, n = 10, baseline mean 30.5) of the same molecule?
**A.** -1.63 cm/s

**Q.** What about the “Diastolic blood pressure, change by Sildenafil (absolute)” value ([1]; 90 minutes, n = 10, baseline mean 80.5) of the same molecule?
**A.** −7.64 mm Hg

**Q.** And the “Systolic blood pressure, change by Sildenafil (in %)” value ([1]; on average 90 minutes after administration, n = 10)?
**A.** −10.0%

**Q.** What about the “Systolic blood pressure, change by Sildenafil (absolute)” value ([1]; on average 90 minutes after administration, n = 10, baseline mean 122) of the same molecule?
**A.** −12.21 mm Hg

**Q.** And the “Portal vein flow, change by Sildenafil (absolute)” value [2]?
**A.** +0.27 l/mm

**Q.** For `CCCc1nc(C)c2c(=O)[nH]c(-c3cc(S(=O)(=O)N4CCN(CC)CC4)ccc3OCC)nn12` [Vardenafil], which “Time after which increase of flow velocity in the portal vein and portal vein flow is clearly detectable” value ([3]; individual patient (liver cirrhosis), similar in practically all other patients) is on record?
**A.** 15 min

**Q.** And the “Time at which effect on portal vein flow is most pronounced” value ([3]; individual patient)?
**A.** 20 to 30 min

**Q.** What about the “Decrease of flow in the V. coronaria ventriculi or in the umbilical vein” value [4] of the same molecule?
**A.** about 30%

**Q.** What about the “Portal vein pressure (wedged hepatic vein pressure)” value [5] of the same molecule?
**A.** 26 mm Hg
